A melting point compilation (Tetko et al.; mined from patent text by program, amines drawn as free bases though some values may be those of a salt)

| Structure (SMILES) | melting point [°C] |
| --- | --- |
| CCOC(Cc1ccc(OCCn2c(CC)nc(-c3ccccc3)cc2=O)cc1)C(=O)O (stereo not given) | 140 to 142 |
| COC(=O)CCc1cnoc1-c1cc(Cl)c(Cl)s1 | 49 to 50 |
| Cc1ccc(-c2c(NS(=O)(=O)c3ccc(C(C)(C)COC4CCCCO4)cc3)ncnc2OCCOc2ncc(Br)cn2)cc1 (stereo not given) | 138 to 139 |
| O=C(CP(=O)(O)O)NCc1ccccc1 | 130 to 134 |
| CCOC(=O)CCCCCCCCCCNC(=O)CN(CCN(CCN(CC(=O)O)CC(=O)O)CC(=O)O)CC(=O)O | 155 to 157 |
| COC(=O)[C@@H]1C[C@H](OC(=O)c2ccccc2)C(=O)[C@H]2[C@@]1(C)CC[C@H]1C(=O)O[C@H](c3ccoc3)C[C@]21C | 165 to 170 |
| CCOc1cc2ncc(C#N)c(Nc3ccc(OCc4cccc(F)c4)c(Cl)c3)c2cc1NC(=O)/C=C/CN(C)C | 165 to 167 |
| CC(C)(C)[Si](C)(C)O[Si](C)(C)C(C)(C)C | 94 to 95 |
| Nc1ccc(-n2ccn(-c3ccc(OC(F)(F)C(F)F)cc3)c2=O)cc1 | 150 to 151 |
| COC(=O)CS(=O)CCCCN(c1cnc(-c2ccccc2)c(-c2ccccc2)n1)C(C)C (stereo not given) | 128 to 130 |
| CC(C)N1CCN(C(=O)COC2c3ccccc3C(=O)N2c2ccc3ccc(Cl)nc3n2)CC1 (stereo not given) | 186 |
| CCC(C(=O)NC)n1nnc2ccccc21 (stereo not given) | 136 to 137 |
| O=C(O)C1=Cc2cc(S(=O)(=O)Cl)ccc2OC1C(F)(F)F (stereo not given) | 208 to 212 |
| O=C(Nc1cccnn1)N1CCN(c2ccnc(-c3ccc(F)cc3F)c2)CC1 | 189 to 190 |
| CC1C(=C[N+](=O)[O-])Nc2ccc(Cl)cc2C(c2ccccc2F)=[N+]1[O-] (stereo not given) | 198 to 200 |
| Cc1nc(N)nc(N)c1-c1cc(Cl)cc(Cl)c1 | 242 to 244 |
| C1CC2CNCCNCCNCCNCC(C1)N2 | 90 to 90.5 |
| NC(=O)c1nc(-c2cccc(O)c2)nc2c1[nH]c(=O)n2-c1cccc(F)c1 | > 375 |
| COc1cc(NC(C)=O)ccc1N1C(=O)C(C)(c2ccccc2Cl)c2cc(Cl)ccc21 (stereo not given) | 83 |
| Cn1nc(N)c2sc3ncccc3c21 | 194 to 196 |
| CC(=NNC(=O)c1ccc2n1Cc1ccccc1N(C(=O)c1ccc(C3CCCCC3)cc1)C2)N(C)C | 164 to 175 |
| COc1ccc(-c2noc3c2C(c2cc(OC)c(OC)c(OC)c2)C2=C(COC2=O)N3)cc1 (stereo not given) | 218 to 219 |
| Oc1cc(-c2ccccc2)on1 | 150 to 151 |
| CCCCCCCCCCCCCCCCSCC(CNS(=O)(=O)CCCI)n1nnnc1C (stereo not given) | 63.5 to 65.5 |
| CC(C)(C)OC(=O)N1CC(O)C(SCc2ccccc2)C1 (stereo not given) | 97 to 98 |

| Structure (SMILES) | melting point [°C] |
| --- | --- |
| N#Cc1ccc(C(=O)c2ccc(O)c(F)c2)cc1 | 168 to 170 |
| CCc1nc2c(N)nc3cc(/C=C/C(=O)OC)ccc3c2n1CC(C)(C)O | 238 to 240 |
| CN1CN(C(=O)c2c(F)cccc2F)C(=O)N(c2ccc(S(=O)(=O)C(F)F)cc2F)C1 | 203 to 205 |
| COc1cc(Nc2nc3c(ccc4c3ncn4CCN3CCOCC3)cc2C#N)c(C)cc1Cl | 246 to 248 |
| N#CC(C(N)=O)c1ccccc1 (stereo not given) | 148 to 150 |
| CC(C)(CN)c1ccc(C(=O)Nc2cn3cc(Cl)ccc3n2)cc1 | 245 to 247 |
| CN1CC(CCCl)Oc2ccccc2C1=O (stereo not given) | 97 to 107 |
| Cc1nc(N2CCN(Cc3ccc(OC(F)(F)F)cc3)C2=O)sc1C(=O)NCc1ccccc1 | 197 to 198 |
| COc1nc2cc(Cl)c(Cl)c(-n3c(CO)nnc3-c3cccnc3)c2nc1OC | 209 to 210 |
| C[C@H]1CCCC(C)(C)[C@@H]1[C@H](O)c1ccc(OC(F)(F)F)cc1 | 29 to 33 |
| CN(C)c1cc2nc(C(C)(C)C)sc2cc1N=C=S | 63 to 66 |
| O=[N+]([O-])c1ccc2c(c1)NP(=O)(N(CCCl)CCCl)NC2 (stereo not given) | 168 to 170 |
| FC(F)(F)c1ccc(Nc2nnc(Cc3ccncc3)c3ccccc23)cc1 | 205 to 206 |
| COC(=O)CSC(CCCc1ccccc1)c1ccc(OCc2ccc3ccc(F)cc3n2)cc1 (stereo not given) | 64 to 66 |
| NC(=O)C1Cc2c([nH]c3ccccc23)CN1 (stereo not given) | 212 to 216 |
| CCCCc1nc2ccccn2c(=O)c1-c1ccc(NC(=O)[C@@H]2CCCN2C(=O)OC(C)(C)C)cc1 | 179 to 187 |
| COc1ccc(C(=O)Nc2ccccc2C(=O)c2ccccn2)cc1 | 132 to 133 |
| Cc1nnc2ccc(-c3ccccc3F)nn12 | 147 to 149 |
| COC(=O)c1ccc(NC(=O)Nc2ccc(OC)c(C34CC5CC(CC(C5)C3)C4)c2)cc1 | 223 to 224 |
| CCOC(=O)CCNC(=O)N1CCn2c(c(C(N)=O)c(Cl)c2-c2ccccc2)C1 | 50 to 60 |
| CCN1c2ccccc2C=C(Br)c2ccccc21 | 148 |
| CCOC(=O)C1=C(C)Nc2ncnc(OC(C)C)c2C1c1ccccc1C(F)(F)F (stereo not given) | 155 |
| COc1cccc([C@H]2O[C@H](CC#N)C(=O)N(CC(C)(C)C)c3ccc(Cl)cc32)c1OC | 193 to 194 |
| CC(C)NC(=O)N1CCC(F)(Cc2c3c(nn2C)c(N)nc2ccccc23)CC1 | 241 to 244 |
| Cc1c(O)cc2c(c1C)N(C=O)C(C)(C)C2 | 202 to 204 |

| Structure (SMILES) | melting point [°C] |
| --- | --- |
| CC(=O)NS(=O)(=O)c1ccc(C2=C(c3ccccc3)C(=O)C(C)(C)O2)cc1Cl | 194 to 195 |
| COc1ccccc(Br)c1=O | 74 to 75 |
| CNC(=O)c1ccccc1Sc1ccc(COC(C)=O)cc1[N+](=O)[O-] | 111 to 113 |
| CN1c2cc(Cl)ccc2-c2nc3ccccc3c3cccc1c23 | 272 to 274 |
| CCCC1N=C2C(=C(C)C(Cl)=NC2(N)CCOCCNC(=O)c2ccccc2)N1 (stereo not given) | 188 to 189 |
| COC(=O)c1nc2ccc(NCCCN3CCC(OC(c4ccccc4)c4ccccc4)CC3)nn2n1 | 93 to 96 |
| CN(C)CCCOc1ccccc1C=C1CCc2ccccc2C1=O | 67 to 69 |
| CC1(C)Oc2ccncc2C2OC21 (stereo not given) | 208 to 210 |
| O=C(O)c1ccc2c(c1)S(=O)(=O)c1ccccc1C2 | 229 to 248 |
| CCOc1ccc(S(=O)(=O)c2ccc(C)nc2Nc2c(C)cc(C)cc2C)cc1 | 157 to 159 |
| O=C(/C=C/C=C(c1cccc(F)c1)c1cccc(F)c1)NCCCCc1cccnc1 | 103 to 104 |
| O=C(O)CCC/C=C\C[C@@H]1[C@H]2CC[C@H](C2)[C@H]1NC(=O)c1csc2ccc(O)cc12 | 141 to 142 |
| CC(C#N)Oc1cccc(C=Cc2ccc3ccc(Cl)cc3n2)c1 (stereo not given) | 118 to 120 |
| CC(=O)NCC1(c2ccccc2)CCN(CCC(c2ccccc2)(c2ccccc2)c2ccccc2)CC1 | 154 to 167 |
| Nc1ccc2c(c1)CCN(Cc1ncn[nH]1)C2 | 191 to 193 |
| CS(=O)(=O)OCC(O)(CC(Cl)(Cl)Cl)c1cc(Cl)cc(Cl)c1 (stereo not given) | 99 to 104 |
| CC(=O)Nc1ccc(C2COc3cc(O)c(O)cc3C2)cc1 (stereo not given) | 201 to 203 |
| COC(=O)c1cccc2c1cc1n2CCCC1 | 102 to 103 |
| COc1ccc2c(O)c(C(=O)N(O)c3ccccc3)cnc2c1 | 260 |
| O=C(NC1CCN(CCC2CCOc3ccccc32)CC1)c1cc2ccccc2o1 (stereo not given) | 146 to 148 |
| Cn1cnc2cc(C(=O)NC3CC3)c(NC(=O)c3cc(C(F)(F)F)nn3-c3ncccc3Cl)c(Cl)c21 | 148 to 151 |
| COc1ccc(C(=O)O)cc1NC(=O)C(CSC(C)=O)Cc1ccccc1 (stereo not given) | 172 to 175 |
| COc1cc2[nH]c(SCc3nccc(OC)c3OC)nc2cc1OC(F)F | 137 to 138 |
| CCC(CC)NC(=O)c1ccc(-c2scc(-c3ccccc3Cl)c2CC(=O)O)cc1 | 101 to 103 |
| COc1ccc(N2CCN(Cc3n[nH]c4c(F)c(F)ccc34)CC2)cc1 | 195 to 197 |

| Structure (SMILES) | melting point [°C] |
| --- | --- |
| CN(CC(=O)O)C(=O)C(=O)c1cn(Cc2ccccc2)c2ccc(-c3cccc(OC(F)(F)F)c3)cc12 | 178 to 179 |
| Cc1cc(C(O)C(Cl)(Cl)Cl)n(C)c1 (stereo not given) | 55 to 57 |
| OC(CCc1ccc(Br)cc1)Cn1ccnc1 (stereo not given) | 121 to 122 |
| CCN1c2ncc(CCc3ccc(C(=O)OC)cc3)cc2C(=O)N(C)c2cccnc21 | 172 to 173 |
| COc1ccc(Cl)cc1C(C)(C)O | 56 |
| N#CCCCCn1cnc(NC(=S)NCC(F)(F)F)n1 | 136 to 138 |
| O=c1cc(C(F)(F)F)[nH]n1-c1ccccc1 | 193 |
| COc1ccc2c(c1)C(=NNc1ccc(S(N)(=O)=O)cc1)C(=O)N2 | > 250 |
| O=C1c2cc3nnn(CCc4cccc(F)c4)c(=O)c3cc2OC2OCCN12 (stereo not given) | 191 to 193 |
| COc1ccc(N2CCOCC2)c2sc(C(N)=O)nc12 | 228 to 230 |
| C=CCOc1cccc2oc(C(=O)OCC)c(C)c12 | 64 to 65 |
| COC(=O)c1ccccc1S(=O)(=O)NC(=O)Nc1nc(COc2ccccc2)cc(OC)n1 | 178 to 180 |
| Cc1c(NC(=O)CC(C)(C)C)cc2c(c1C)OC(C)(C)C2c1ccc(C=O)cc1 (stereo not given) | 169 to 170 |
| COC(=O)CCCNC1(c2ccccc2Cl)C(=O)Nc2ccc(Cl)cc21 (stereo not given) | 142 |
| C[C@H](CO)Nc1nc(SCc2cccc(C(F)(F)F)c2F)nc2[nH]c(=O)cnc12 | 217 to 219 |
| CCC(=O)C1=C(O)OC(C)(C)OC1=O | 55 to 57 |
| CCn1ncc2c1ncc1c(NC)nc3cc(C)nn3c12 | 254 to 255 |
| N=C(N)Nc1nc(CCCCC(N)=NO)cs1 | 167 to 168 |
| Cn1c2ccccc2c2cc(C(=O)O)sc21 | 179 to 180 |
| NCC1COc2cc(Cl)cc(-c3ccc(Cl)cc3C(F)(F)F)c2N1 (stereo not given) | 95 |
| CCOC(=O)c1cn(Cc2ccccc2)nc1NC(=O)N(C)C | 125 to 126 |
| COC(=O)c1cnc(Nc2cc(N3CCN(CCO)CC3)nc(C)n2)s1 | 242 |
| O=c1[nH]c(=O)n(Cc2cccc(OCc3noc(-c4ccccc4)n3)c2)o1 | 133 to 134 |
| Nc1cccc(C(=O)NCC23CC4CC(CC(C4)C2)C3)c1Cl | 154 |
| COC=C(C#C[Si](C)(C)C)C(=O)OC | 70 to 72 |
